This is an account of results in US8980224B2, “Method of cardiac imaging” (GE Healthcare AS, priority 2004, dated 2015).

Data set [1] can be described thus: 13C polarisation obtained by the DNP method, assessed with 13C-NMR. It counts as physicochemical. As to conditions: 1.2 K, 3.35 T. On the procedure:
A 20 mM solution was prepared by dissolving 5.0 mg of the radical of Example 1 in ^13CI-pyruvic acid (164 μl). The sample was mixed to homogeneity and an aliquot of the solution (41 mg) was placed in a sample cup and inserted in the DNP polariser.
The sample was polarised under DNP conditions at 1.2 K in a 3.35 T magnetic field under irradiation with microwave (93.950 GHz). After 2 hours the polarisation was stopped and the sample was dissolved using a dissolution device according to WO-A-02/37132 in an aqueous solution of sodium hydroxide and tris(hydroxymethyl)aminomethane (TRIS) to provide a neutral solution of hyperpolarised sodium ^13C1-pyruvate. The dissolved sample was rapidly analysed with ^13C-NMR to assess the polarisation and a 19.0% ^13C polarisation was obtained.
A 15 mM solution was prepared by dissolving the radical of Example 1 (209.1 mg) in a mixture of ^13C1-pyruvic acid (553 mg) and unlabelled pyruvic acid (10.505 g). The sample was mixed to homogeneity and an aliquot of the solution (2.015 g) was placed in a sample cup and inserted in the DNP polariser.
The sample was polarised under DNP conditions at 1.2 K in a 3.35 T magnetic field under irradiation with microwave (93.950 GHz). […] The filtered solution was rapidly analysed with ^13C-NMR to assess the polarisation, 16.5% ^13C polarisation was obtained. The residual radical concentration was subsequently analysed with a UV spectrophotometer meter at 469 nm and was determined to be below the detection limit of 0.1 μM.
A 20 mM solution was prepared by dissolving Tris(8-carboxy-2,2,6,6-tetra(hydroxyethoxy)methyl-benzo[1,2-d:4,5-d′]-bis-(1,3)-dithiole-4-yl)methyl sodium salt in ^13C1-pyruvic acid (83.1 mg). […] The DNP enhancement was calculated from a measurement of the thermal equilibrium ^13C-NMR signal and the enhanced NMR signal. […]

For the next data set, the system named is myocardial tissue. As to the kind of experiment: Cardiac 13C-MR imaging in the pig before and after occlusion of the circumflexa. Type of data set: in vivo. As to conditions: 0.22 mmol/kg i.v., imaging 30 s after start of injection. As to the method: The pig (25 kg) was anaesthetised using a cocktail containing isotonic NaCl (26 vol %), Ketalar (50 mg/ml) (Pfizer AB) (42 vol %), Norcuron (10 mg+5 ml sterile water) (Organon) (21 vol %) and Midazolam (5 mg/ml) (Pharma Hameln) (11% vol) administered using an infusion pump at a rate of 0.6 ml/min.
After the first injection with ^13C-pyruvate the pig was removed from the MR scanner. Under X-ray guidance, a balloon catheter was inserted into the arteria coronaria sinistra and the circumflexa was blocked for a 15 minute period. During the whole operation ECG and blood pressure were measured. 90 Minutes after the end of the ischemic period, the pig was imaged again and ^13C-images were acquired from (about) the same location as were the control measurement was carried out.
The pig was positioned in a pig MR coil (Rapid Biomedical, Germany) and imaged using a standard clinical cardiac proton MR imaging sequence library to get anatomical information and to get the short axis view orientation of the myocardium (see proton reference image in the figures to see an example of short axis view).
Based on the proton frequency found by the MR system the MR frequency for ^13C1-alanine was calculated according to the following equation: Frequency ^13C1-alanine=0.25144×[(system frequency proton×1.00021)−0.000397708]
The frequency calculated positioned the MR signal arising from ^13C1-alanine on resonance with ^13C1-lactate on the left and ^13C1-pyruvate and ^13C1-bicarbonate resonating on the right of ^13C1-alanine. An unlocalised MR spectroscopy sequence was run to ensure that the ^13C-MR coil and the system MR frequency had been set up correctly. The ^13C-image location was positioned to cover the myocardium (short axis view) (slice thickness 20 mm, in plane pixel size 7.5×7.5 mm^2). In the reconstruction phase, the image data was zero-filled to result in 3.75×3.75×20 mm^3 resolution. 16 ml of ^13C1-pyruvate (327 mM) was injected (0.22 mmol/kg) during a period of 12 s (1.3 ml/s) i.v. into the front leg and 30 s after the start of the injection (i.e. 18 s after finishing the injection), the chemical shift ^13C-MR sequence was started.
In the reconstruction phase, the matrix was zero-filled to 32×32, a mathematical operation that helps to improve the spatial resolution. The dataset was analysed on the MRI scanner with software provided by the manufacturer. The results are metabolic images for ^13C-pyruvate, ^13C-alanine, ^13C-lactate and ^13C-bicarbonate.

Data set [2] can be described thus: T1 relaxation of 13C-pyruvate in human full blood. It counts as physicochemical. The settings on record: human full blood at 37° C. The text has this: The amount of alanine, bicarbonate and lactate is dependent on the metabolic status of the myocardial tissue under investigation.
Setting [3] is: 90 minutes after 15 minute occlusion of the circumflexa.
The mark [4] stands for this setting: before vs 90 minutes after 15 minute occlusion.

Each structure is given as a SMILES string.

Consider `CC(=O)[13C](=O)O` [^13C1-pyruvic acid], for which the 13C polarisation in data set [1] (Example 4: 20 mM tris(8-carboxy-2,2,6,6-tetra(hydroxyethoxy)methyl-benzo-bis-dithiole-4-yl)methyl sodium salt, calculated from thermal equilibrium and enhanced NMR signal) is on record as 16%.
In data set [1] (Example 2: 20 mM radical of Example 1 in 13C1-pyruvic acid, 93.950 GHz, 2 hours, dissolved in NaOH/TRIS, liquid 13C-NMR), `CC(=O)C(=O)O` [^13C-pyruvate, sodium ^13C1-pyruvate] showed a 13C polarisation of 19.0%. This molecule also displayed a 13C polarisation in data set [1] (Example 3: 15 mM radical of Example 1, 4 hours, dissolved in NaOH/TRIS, 0.5 M pyruvate, radical removed on C18 column, filtered solution) of 16.5%. Further, in the data set on myocardial tissue (setting [3]), the “13C-bicarbonate signal in myocardial tissue at risk (compared to the control)” value is on record as “strongly reduced” and the “13C-lactate signal in myocardial tissue at risk” value was “positive contrast”. Besides, in the data set with myocardial tissue (setting [4]), the “13C-alanine image before and after the ischemic period” value was “No difference”; the “13C-pyruvate image before and after the ischemic period” value is “No difference”. In addition, in data set [2], the T1 relaxation result is listed as “about 42 s”.
